# Reference: patent US20230218624A1 (Urovant Sciences GmbH, priority 2017, published 2023)
# Columns and labels:
# [1] = Single rising oral dose Phase 1 pharmacokinetics; type: in vivo, human
# Protocol: The steady state AUC geometric mean accumulation ratios were ˜2 in young male subjects and ˜2.8 in elderly subjects (male and female).
# All subjects were healthy adults. […] Systemic exposures were greater than dose proportional up to 600 mg.
# [2] = Relative bioequivalence of aqueous and non-aqueous tablet; type: in vivo, human; details: 50 mg
# Text: An open-label, single-dose, randomized, two-period, two-treatment, two-sequence, crossover Phase 1 study evaluated the relative bioequivalence of two types of tablets with slightly different composition: aqueous tablet (test) and non-aqueous tablet (reference).
# [3] = PK in patients with moderate hepatic impairment; details: single dose 100 mg
# [4] = target: β2-AR (Homo sapiens, UniProt P07550); assay: Competition binding assay, membranes with recombinant β2-AR
# [5] = system: men and women with OAB; assay: Phase 2b efficacy study in men and women with OAB; type: in vivo, human; details: for Micturitions, change from baseline in average number of micturitions, difference in LS means / Total incontinence, change from baseline in average number of episodes, difference in LS means / Urgency Episodes, change from baseline in average number of episodes, difference in LS means / Urgency incontinence, change from baseline in average number of episodes, difference in LS means / Volume voided, change from baseline in average volume per void over one diary day, difference in LS means: week 8; for Change from baseline in volume voided per micturition, difference from placebo in LS means: Week 8; for Total incontinence episodes, change from baseline Week 8, mean / Total incontinence episodes, daily number, Week 8 mean / Total incontinence episodes, difference from placebo Week 8, difference in LS means / Urgency incontinence episodes, change from baseline Week 8, mean / Urgency incontinence episodes, daily number, Week 8 mean / Urgency incontinence episodes, difference from placebo Week 8, difference in LS means: OAB wet subjects
# Text: Part 2 was designed to continue to assess the safety and efficacy of concomitant dosing. […] Subjects in both Part 1 and Part 2 had the option of enrolling in a 1-year extension. Participants were required to keep a voiding diary, recording the occurrence of each strong urge, total incontinence, and urge incontinence episode. Efficacy data for Part 1 and Part 2 are summarized herein.
# The total number of urgency incontinence episodes must have exceeded the total number of stress incontinence episodes for all subjects.
# Conversely, a dose dependent effect on urge incontinence or total incontinence was not observed.
# [6] = system: healthy subjects; assay: Maximum MA4 heart rate in multiple-dose Phase 1 study; type: in vivo, human; details: Day 14
# Protocol: More intensive assessments of heart rate and blood pressure were performed in healthy volunteers in several Phase 1 studies. […] Doses ranged from 25 to 400 mg once daily for 7 to 28 days depending on the cohort. Least squares mean and 90% confidence intervals of maximum change from baseline in moving average of heart rate over 4 hours postdose (MA4 HR) are presented in Table 17.
# [7] = target: CYP3A4 (Homo sapiens, UniProt P08684); assay: In vitro CYP metabolism; type: in vitro ADME
# [8] = system: males and females with OAB; assay: Phase 3 12-week placebo controlled study in OAB; type: in vivo, human; details: Week 12
# Protocol: After eight weeks, the dose could be increased to 100 mg once daily as clinically indicated.
# [9] = healthy matched control subjects
# CYP3A4, sequence (P08684 whole entry): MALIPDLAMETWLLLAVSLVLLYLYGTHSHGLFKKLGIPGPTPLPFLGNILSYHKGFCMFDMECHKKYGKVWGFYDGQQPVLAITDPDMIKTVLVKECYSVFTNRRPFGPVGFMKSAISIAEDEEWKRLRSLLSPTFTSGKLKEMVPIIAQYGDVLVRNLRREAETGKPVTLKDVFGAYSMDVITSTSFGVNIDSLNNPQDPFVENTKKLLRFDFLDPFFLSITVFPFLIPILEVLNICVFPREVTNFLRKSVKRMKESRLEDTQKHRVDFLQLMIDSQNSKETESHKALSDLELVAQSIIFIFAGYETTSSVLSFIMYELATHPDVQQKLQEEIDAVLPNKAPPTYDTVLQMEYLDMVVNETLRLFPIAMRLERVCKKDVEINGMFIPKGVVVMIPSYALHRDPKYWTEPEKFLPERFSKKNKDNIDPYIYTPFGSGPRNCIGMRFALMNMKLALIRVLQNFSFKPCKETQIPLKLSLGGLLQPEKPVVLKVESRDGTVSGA
# β2-AR, sequence (P07550 whole entry): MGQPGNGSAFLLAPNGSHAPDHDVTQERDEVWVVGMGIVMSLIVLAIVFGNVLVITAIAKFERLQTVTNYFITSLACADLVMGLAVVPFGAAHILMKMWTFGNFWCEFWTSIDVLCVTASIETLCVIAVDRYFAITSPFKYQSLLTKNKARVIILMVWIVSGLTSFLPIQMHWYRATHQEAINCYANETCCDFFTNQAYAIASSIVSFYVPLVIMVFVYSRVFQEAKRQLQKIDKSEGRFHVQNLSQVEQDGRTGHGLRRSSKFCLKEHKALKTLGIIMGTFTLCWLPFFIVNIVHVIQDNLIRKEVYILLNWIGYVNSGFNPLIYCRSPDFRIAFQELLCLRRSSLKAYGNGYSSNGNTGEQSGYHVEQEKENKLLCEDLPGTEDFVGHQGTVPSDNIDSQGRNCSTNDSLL
structure (smiles),measurement,setting,value
"O=C(Nc1ccc(C[C@@H]2CC[C@H]([C@H](O)c3ccccc3)N2)cc1)[C@@H]1CCc2nccc(=O)n21 [Vibegron, (6S)—N-[4-[[(2S,5R)-5-[(R)-hydroxy(phenyl)methyl]pyrrolidin-2-yl]methyl]phenyl]-4-oxo-7,8-dihydro-6H-pyrrolo[1,2-a]pyrimidine-6-carboxamide]","exposure increase, young Japanese vs non-Japanese young males",[1]; single dose,< 2 fold
same,t1/2 (harmonic mean ± pseudo SD),"[1]; single dose 50 mg, Japanese healthy young males",64.4 ± 8.7 h
same,t1/2 (harmonic mean ± pseudo SD),"[1]; single dose 50 mg, elderly male and female",92.1 ± 15.9 h
same,t1/2 (harmonic mean ± pseudo SD),"[1]; single dose 200 mg, healthy young males",75.3 ± 9.1 h
same,t1/2 (harmonic mean ± pseudo SD),"[1]; single dose 450 mg, healthy young males",60.0 ± 9.4 h
same,AUC0-inf GMR test to reference tablet,[2],100.2%
same,Cmax GMR test to reference tablet,[2],107.7%
same,"AUC0-inf, geometric least squares mean",[3]; [9],1440 ng·h/mL
same,"CL/F, geometric mean (% geometric CV)",[3]; [9],68.3 (36.0%) L/hr
same,"Cmax, geometric least squares mean",[3]; [9],125 ng/mL
same,"AUC0-inf, geometric least squares mean",[3]; moderate hepatic impairment,1820 ng·h/mL
same,"Apparent terminal t1/2, geometric mean (% geometric CV)",[3]; moderate hepatic impairment,94.5 (8.88%) hr
same,"CL/F, geometric mean (% geometric CV)",[3]; moderate hepatic impairment,56.0 (31.2%) L/hr
same,"Cmax, geometric least squares mean",[3]; moderate hepatic impairment,168 ng/mL
same,binding to β2-AR,[4],does not bind
same,"Micturitions, change from baseline in average number of micturitions, difference in LS means",[5]; 50 mg - Placebo,−0.64
same,"Total incontinence, change from baseline in average number of episodes, difference in LS means",[5]; 50 mg - Placebo,−0.60
same,"Urgency Episodes, change from baseline in average number of episodes, difference in LS means",[5]; 50 mg - Placebo,−0.76
same,"Urgency incontinence, change from baseline in average number of episodes, difference in LS means",[5]; 50 mg - Placebo,−0.72
same,"Volume voided, change from baseline in average volume per void over one diary day, difference in LS means",[5]; 50 mg - Placebo,29.1 mL
same,"Micturitions, change from baseline in average number of micturitions, difference in LS means",[5]; 100 mg - 50 mg,−0.27
same,"Total incontinence, change from baseline in average number of episodes, difference in LS means",[5]; 100 mg - 50 mg,0.02
same,"Urgency Episodes, change from baseline in average number of episodes, difference in LS means",[5]; 100 mg - 50 mg,−0.48
same,"Urgency incontinence, change from baseline in average number of episodes, difference in LS means",[5]; 100 mg - 50 mg,0.01
same,"Volume voided, change from baseline in average volume per void over one diary day, difference in LS means",[5]; 100 mg - 50 mg,-5.69 mL
same,"Micturitions, change from baseline in average number of micturitions, difference in LS means",[5]; 100 mg - Placebo,−0.91
same,"Total incontinence, change from baseline in average number of episodes, difference in LS means",[5]; 100 mg - Placebo,−0.58
same,"Urgency Episodes, change from baseline in average number of episodes, difference in LS means",[5]; 100 mg - Placebo,−1.24
same,"Urgency incontinence, change from baseline in average number of episodes, difference in LS means",[5]; 100 mg - Placebo,−0.71
same,"Volume voided, change from baseline in average volume per void over one diary day, difference in LS means",[5]; 100 mg - Placebo,23.4 mL
same,"Micturitions, change from baseline Week 8, mean",[5]; vibegron 3 mg,−1.56
same,"Micturitions, daily number, Week 8 mean",[5]; vibegron 3 mg,9.35
same,"Micturitions, difference from placebo Week 8, difference in LS means",[5]; vibegron 3 mg,−0.46
same,"Urgency episodes, change from baseline Week 8, mean",[5]; vibegron 3 mg,−1.69
same,"Urgency episodes, daily number, Week 8 mean",[5]; vibegron 3 mg,4.68
same,"Urgency episodes, difference from placebo Week 8, difference in LS means",[5]; vibegron 3 mg,−0.18
same,"Change from baseline in volume voided per micturition, difference from placebo in LS means",[5]; vibegron 3 mg once daily,15.99 mL
same,"Total incontinence episodes, change from baseline Week 8, mean",[5]; vibegron 3 mg,−1.56
same,"Total incontinence episodes, daily number, Week 8 mean",[5]; vibegron 3 mg,1.38
same,"Total incontinence episodes, difference from placebo Week 8, difference in LS means",[5]; vibegron 3 mg,−0.18
same,"Urgency incontinence episodes, change from baseline Week 8, mean",[5]; vibegron 3 mg,−1.38
same,"Urgency incontinence episodes, daily number, Week 8 mean",[5]; vibegron 3 mg,1.21
same,"Urgency incontinence episodes, difference from placebo Week 8, difference in LS means",[5]; vibegron 3 mg,−0.28
same,"Micturitions, change from baseline Week 8, mean",[5]; vibegron 15 mg,−1.71
same,"Micturitions, daily number, Week 8 mean",[5]; vibegron 15 mg,9.53
same,"Micturitions, difference from placebo Week 8, difference in LS means",[5]; vibegron 15 mg,−0.45
same,"Urgency episodes, change from baseline Week 8, mean",[5]; vibegron 15 mg,−2.35
same,"Urgency episodes, daily number, Week 8 mean",[5]; vibegron 15 mg,4.42
same,"Urgency episodes, difference from placebo Week 8, difference in LS means",[5]; vibegron 15 mg,−0.67
same,"Change from baseline in volume voided per micturition, difference from placebo in LS means",[5]; vibegron 15 mg once daily,28.23 mL
same,"Total incontinence episodes, change from baseline Week 8, mean",[5]; vibegron 15 mg,−1.99
same,"Total incontinence episodes, daily number, Week 8 mean",[5]; vibegron 15 mg,1.31
same,"Total incontinence episodes, difference from placebo Week 8, difference in LS means",[5]; vibegron 15 mg,−0.48
same,"Urgency incontinence episodes, change from baseline Week 8, mean",[5]; vibegron 15 mg,−1.81
same,"Urgency incontinence episodes, daily number, Week 8 mean",[5]; vibegron 15 mg,1.12
same,"Urgency incontinence episodes, difference from placebo Week 8, difference in LS means",[5]; vibegron 15 mg,−0.57
same,"Micturitions, change from baseline Week 8, mean",[5]; vibegron 50 mg,−1.87
same,"Micturitions, daily number, Week 8 mean",[5]; vibegron 50 mg,9.05
same,"Micturitions, difference from placebo Week 8, difference in LS means",[5]; vibegron 50 mg,−0.64
same,"Urgency episodes, change from baseline Week 8, mean",[5]; vibegron 50 mg,−2.36
same,"Urgency episodes, daily number, Week 8 mean",[5]; vibegron 50 mg,3.71
same,"Urgency episodes, difference from placebo Week 8, difference in LS means",[5]; vibegron 50 mg,−0.76
same,"Change from baseline in volume voided per micturition, difference from placebo in LS means",[5]; vibegron 50 mg once daily,29.05 mL
same,"Total incontinence episodes, change from baseline Week 8, mean",[5]; vibegron 50 mg,−2.02
same,"Total incontinence episodes, daily number, Week 8 mean",[5]; vibegron 50 mg,1.02
same,"Total incontinence episodes, difference from placebo Week 8, difference in LS means",[5]; vibegron 50 mg,−0.60
same,"Urgency incontinence episodes, change from baseline Week 8, mean",[5]; vibegron 50 mg,−1.90
same,"Urgency incontinence episodes, daily number, Week 8 mean",[5]; vibegron 50 mg,0.86
same,"Urgency incontinence episodes, difference from placebo Week 8, difference in LS means",[5]; vibegron 50 mg,−0.72
same,"Micturitions, change from baseline Week 8, mean",[5]; vibegron 100 mg,−2.11
same,"Micturitions, daily number, Week 8 mean",[5]; vibegron 100 mg,9.02
same,"Micturitions, difference from placebo Week 8, difference in LS means",[5]; vibegron 100 mg,−0.91
same,"Urgency episodes, change from baseline Week 8, mean",[5]; vibegron 100 mg,−2.98
same,"Urgency episodes, daily number, Week 8 mean",[5]; vibegron 100 mg,4.22
same,"Urgency episodes, difference from placebo Week 8, difference in LS means",[5]; vibegron 100 mg,−1.24
same,"Change from baseline in volume voided per micturition, difference from placebo in LS means",[5]; vibegron 100 mg once daily,23.36 mL
same,"Total incontinence episodes, change from baseline Week 8, mean",[5]; vibegron 100 mg,−2.26
same,"Total incontinence episodes, daily number, Week 8 mean",[5]; vibegron 100 mg,1.12
same,"Total incontinence episodes, difference from placebo Week 8, difference in LS means",[5]; vibegron 100 mg,−0.58
same,"Urgency incontinence episodes, change from baseline Week 8, mean",[5]; vibegron 100 mg,−2.05
same,"Urgency incontinence episodes, daily number, Week 8 mean",[5]; vibegron 100 mg,0.84
same,"Urgency incontinence episodes, difference from placebo Week 8, difference in LS means",[5]; vibegron 100 mg,−0.71
same,Maximum MA4 HR difference from placebo (90% CI),[6]; 25 mg once daily,"−1.60 (−7.09, 3.88) bpm"
same,"Maximum MA4 HR, LS mean (90% CI)",[6]; 25 mg once daily,"1.47 (−3.24, 6.17) bpm"
same,Maximum MA4 HR difference from placebo (90% CI),[6]; 50 mg once daily,"−1.57 (−6.70, 3.56) bpm"
same,"Maximum MA4 HR, LS mean (90% CI)",[6]; 50 mg once daily,"1.50 (−2.79, 5.79) bpm"
same,"Maximum MA4 HR, LS mean (90% CI)",[6]; 100 mg once daily,"3.28 (−1.02, 7.57) bpm"
same,Maximum MA4 HR difference from placebo (90% CI),[6]; 150 mg once daily,"0.10 (−5.04, 5.23) bpm"
same,"Maximum MA4 HR, LS mean (90% CI)",[6]; 150 mg once daily,"3.17 (−1.13, 7.46) bpm"
same,Maximum MA4 HR difference from placebo (90% CI),[6]; 200 mg once daily,"2.60 (−2.89, 8.08) bpm"
same,"Maximum MA4 HR, LS mean (90% CI)",[6]; 200 mg once daily,"5.67 (0.96, 10.37) bpm"
same,Maximum MA4 HR difference from placebo (90% CI),[6]; 300 mg once daily,"5.98 (0.85, 11.12) bpm"
same,"Maximum MA4 HR, LS mean (90% CI)",[6]; 300 mg once daily,"9.06 (4.76, 13.35) bpm"
same,Maximum MA4 HR difference from placebo (90% CI),[6]; 400 mg once daily,"7.26 (2.13, 12.39) bpm"
same,"Maximum MA4 HR, LS mean (90% CI)",[6]; 400 mg once daily,"10.33 (6.04, 14.63) bpm"
same,CYP responsible for in vitro metabolism,[7],CYP3A4 is the predominant CYP responsible for in vitro metabolism
same,"Micturitions, LS mean placebo adjusted change from baseline (95% CI)",[8]; 50 mg,"−0.86 (−1.12, −0.60)"
same,"Total incontinence episodes, LS mean placebo adjusted change from baseline (95% CI)",[8]; 50 mg,"−0.30 (−0.49, −0.12)"
same,"Urge urinary incontinence episodes, LS mean placebo adjusted change from baseline (95% CI)",[8]; 50 mg,"−0.27 (−0.44, −0.10)"
same,"Urgency episodes, LS mean placebo adjusted change from baseline (95% CI)",[8]; 50 mg,"−0.51 (−0.76, −0.25)"
same,"Volume voided, LS mean placebo adjusted change from baseline (95% CI)",[8]; 50 mg,"25.76 (20.02, 31.46) mL"
same,"Micturitions, LS mean placebo adjusted change from baseline (95% CI)",[8]; 100 mg,"−0.81 (−1.07, −0.55)"
same,"Total incontinence episodes, LS mean placebo adjusted change from baseline (95% CI)",[8]; 100 mg,"−0.43 (−0.61, −0.24)"
same,"Urge urinary incontinence episodes, LS mean placebo adjusted change from baseline (95% CI)",[8]; 100 mg,"−0.39 (−0.55, −0.22)"
same,"Urgency episodes, LS mean placebo adjusted change from baseline (95% CI)",[8]; 100 mg,"−0.67 (−0.93, −0.42)"
same,"Volume voided, LS mean placebo adjusted change from baseline (95% CI)",[8]; 100 mg,"22.16 (16.44, 27.89) mL"
